# Values quoted from earlier work in US20110129510A1, “FIBROUS SURFACE STRUCTURE CONTAINING ACTIVE INGREDIENTS WITH CONTROLLED RELEASE OF ACTIVE INGREDIENTS, USE THEREOF AND METHOD FOR THE PRODUCTION THEREOF” (BASF SE, priority 2008, published 2011).
# Where two headings read alike, the source gives them in different places.
Solubility in water (25° C.),SMILES,other results
,NC(=O)N1c2ccccc2C=Cc2ccccc21 [Carbamazipine],Solubility in water (RT): 945.1 µg/mL
<10 µg/mL,Clc1ccccc1C(c1ccccc1)(c1ccccc1)n1ccnc1 [Clotrimazole],
,CCOC(=O)C1=C(C)NC(C)=C(C(=O)OC)C1c1cccc(Cl)c1Cl (stereo not drawn) [Felodipine],Solubility in water (22° C.): 4.53 µg/mL
0.03685 µg/mL,COC1=CC(=O)C[C@@H](C)[C@]12Oc1c(Cl)c(OC)cc(OC)c1C2=O [Griseofulvin],
14 µg/mL,COc1ccc2c(c1)c(CC(=O)O)c(C)n2C(=O)c1ccc(Cl)cc1 [Indomethacin],
,CC(=O)N1CCN(c2ccc(OCC3COC(Cn4ccnc4)(c4ccc(Cl)cc4Cl)O3)cc2)CC1 (stereo not drawn) [Ketoconazole],Solubility in water (37° C.): 80 µg/mL
